{
  "source": "patent US20180327807A1",
  "about": "“ASSAY FOR DETERMINING ANTIBIOTICS IN WASTE” (DSM Sinochem Pharmaceuticals Netherlands B.V., priority 2015, published 2018)",
  "test_system": "microorganism in the agar layer",
  "assay": "Delvotest SP NT microbial growth inhibition assay, colour of the agar indicator, with or without added milk",
  "format": "cell-based",
  "details": "2 ppb test solution, with added milk or added water, 60 to 210 min",
  "protocol": "From all samples solutions 100 μl is brought in the Delvotest SP NT Ampoule with an Eppendorf pipet of 100 μl. With the point of the pipet the tube cover top of the ampoule will be penetrated and the 100 μl is added to the ampoule. Put the ampoules for 2.5 h in a water bath of 65° C. Seal the ampoule with tape. After 2.5 h the ampoules are removed from the water bath. Check if the blanks are yellow, if not prolong the time in the water bath with 30 min. Yellow is negative and purple is positive. Positive means there is antimicrobial activity present in the sample which is higher than 2 ppb (calculated as penicillin G K). Two samples, a blank (water) and 2 ppb penicillin G K test solution were analysed using commercially available (DSM Food Specialties B.V., Delft, The Netherlands) Delvotest SP NT analogous to the supplier's manual. Two ampoules were filled with blank sample. To one milk (regular low-fat milk from a Dutch supermarket was used in the present example) was added according to the instruction as outlined in Example 1 and to the other the same amount of water was added. […] The ampoules filled with sample were incubated at 64° C.+/−2° C.) and the colour of the agar in the ampoules was visually recorded at several points in time. […]",
  "data": [
    {"smiles": "CC1(C)S[C@@H]2[C@H](NC(=O)Cc3ccccc3)C(=O)N2[C@H]1C(=O)[O-].[K+]", "note": "[Penicillin G K test solution, penicillin G K]", "values": [
      {"measurement": "colour change of the indicator (inhibiting effect on growth of the microorganism)", "result": "do not show any colour change"}
    ]}
  ]
}
